Reference: patent publication US20250049774A1, “Crystalline Forms of Apalutamide” (Apotex Inc., priority 2021, published 2025)

Key:
[1] = Intrinsic dissolution rate (IDR), Wood's apparatus; type: physicochemical; conditions: 900 ml distilled water, 37° C., 50 rpm; approx. 200 mg compressed at 1.5 metric tons for 1 minute
Procedure: Intrinsic dissolution rate (IDR) measurements were performed using a Wood's apparatus. Samples were prepared by compressing an amount (approximately 200 mg) of sample at 1.5 metric tons for 1 minute. A dissolution medium consisting of 900 ml distilled water maintained at 37° C., and rotation speed of 50 rpm, was used for each experiment.

[2] = drug substance, as described in CHMP Assessment Report; cited from earlier work
[3] = drug substance, as described in CHMP Assessment Report; cited from earlier work; remark: listed apart in the source

| Intrinsic Dissolution Rate [1] [mg min^−1 cm^−2] | SMILES | Biopharmaceutics Classification System (BCS) class [2] | aqueous solubility [2] | permeability [3] |
| --- | --- | --- | --- | --- |
| 0.0085 | CNC(=O)c1ccc(N2C(=S)N(c3cnc(C#N)c(C(F)(F)F)c3)C(=O)C23CCC3)cc1F [Apalutamide Amorphous Form] |  |  |  |
| 0.0065 | CNC(=O)c1ccc(N2C(=S)N(c3cnc(C#N)c(C(F)(F)F)c3)C(=O)C23CCC3)cc1F [Apalutamide Form B] |  |  |  |
|  | CNC(=O)c1ccc(N2C(=S)N(c3cnc(C#N)c(C(F)(F)F)c3)C(=O)C23CCC3)cc1F [apalutamide, (4-[7-(6-cyano-5-trifluoromethylpyridin-3-yl)-8-oxo-6-thioxo-5,7-diazaspiro[3.4]oct-5-yl]-2-fluoro-N-methylbenzamide)] | Class II | low, pH-independent | high |
